Results taken from the supplement of paper PMC13380429.

Tests used:
Conditions in all cases: 72 h
HepG2 [1] = test: drug sensitivity score (DSS) for viability; higher = more toxic; extreme values may be limits of the assay
Caco-2 [2] = test: as above
Calu-3 [3] = test: as above
U2OS [4] = test: as above
Vero E6 [5] = test: as above
HepG2 [6] = test: cell viability relative to DMSO; higher = less toxic
Caco-2 [7] = test: as above
Calu-3 [8] = test: as above
U2OS [9] = test: as above
Vero E6 [10] = test: as above
HepG2 [11] = test: relative viability EC50 (midpoint between 100% and the lowest measured viability); higher = less toxic
Caco-2 [12] = test: as above
Calu-3 [13] = test: as above
U2OS [14] = test: as above
Vero E6 [15] = test: as above

Row | Compound | drug sensitivity score (HepG2 [1]) | drug sensitivity score (Caco-2 [2]) | drug sensitivity score (Calu-3 [3]) | drug sensitivity score (U2OS [4]) | drug sensitivity score (Vero E6 [5]) | cell viability (HepG2 [6]; 1 nM) [%] | cell viability (HepG2 [6]; 10 nM) [%] | cell viability (HepG2 [6]; 100 nM) [%] | cell viability (HepG2 [6]; 1000 nM) [%] | cell viability (HepG2 [6]; 10000 nM) [%] | cell viability (Caco-2 [7]; 1 nM) [%] | cell viability (Caco-2 [7]; 10 nM) [%] | cell viability (Caco-2 [7]; 100 nM) [%] | cell viability (Caco-2 [7]; 1000 nM) [%] | cell viability (Caco-2 [7]; 10000 nM) [%] | cell viability (Calu-3 [8]; 1 nM) [%] | cell viability (Calu-3 [8]; 10 nM) [%] | cell viability (Calu-3 [8]; 100 nM) [%] | cell viability (Calu-3 [8]; 1000 nM) [%] | cell viability (Calu-3 [8]; 10000 nM) [%] | cell viability (U2OS [9]; 1 nM) [%] | cell viability (U2OS [9]; 10 nM) [%] | cell viability (U2OS [9]; 100 nM) [%] | cell viability (U2OS [9]; 1000 nM) [%] | cell viability (U2OS [9]; 10000 nM) [%] | cell viability (Vero E6 [10]; 1 nM) [%] | cell viability (Vero E6 [10]; 10 nM) [%] | cell viability (Vero E6 [10]; 100 nM) [%] | cell viability (Vero E6 [10]; 1000 nM) [%] | cell viability (Vero E6 [10]; 10000 nM) [%] | relative viability EC50 (HepG2 [11]) [µM] | relative viability EC50 (Caco-2 [12]) [µM] | relative viability EC50 (Calu-3 [13]) [µM] | relative viability EC50 (U2OS [14]) [µM] | relative viability EC50 (Vero E6 [15]) [µM]
1 | O=S(=O)(O)c1cc(O)ccc1O [etamsylate] | 0 | 0 | 0 | 0 | 0 | 107 | 105 | 110 | 108 | 97.8 | 89.7 | 100 | 91 | 98.8 | 92.4 | 95.6 | 100 | 106 | 95 | 95.3 | 92.5 | 98.3 | 95.7 | 99 | 104 | 96.2 | 94.5 | 104 | 94.5 | 106 | > 10 | > 10 | > 10 | > 10 | > 10
2 | CC(C)(Oc1ccc(Cl)cc1)C(=O)OCCOC(=O)c1cccnc1 [etofibrate] | 0 | 0 | 0 | 0 | 0 | 92.7 | 106 | 96 | 99.1 | 111 | 95.3 | 88.1 | 94 | 92.1 | 105 | 86.8 | 89.6 | 99.1 | 111 | 101 | 101 | 94.1 | 102 | 94.9 | 96.6 | 93.5 | 99.7 | 91.7 | 93.9 | 98.5 | > 10 | > 10 | > 10 | > 10 | > 10
3 | COc1cc2c(Oc3ccc(NC(=O)C4(C(=O)Nc5ccc(F)cc5)CC4)cc3F)ccnc2cc1OCCCN1CCOCC1 [foretinib] | 11.9 | 9.5 | 7.8 | 9.3 | 9.4 | 94.7 | 95.7 | 101 | 47.8 | 0.1 | 102 | 98.6 | 97.2 | 70.3 | 5.3 | 99.7 | 98.6 | 96.9 | 84.7 | 5.1 | 103 | 99.1 | 94.2 | 75.1 | 0 | 102 | 97.9 | 102 | 74.3 | 0.2 | 0.965 | 1.37 | 1.92 | 1.55 | 1.52
4 | COc1ccccc1OCC(O)CO (stereo not given) [guaifenesin] | 0 | 0 | 0 | 0 | 0 | 100 | 99.8 | 98.7 | 103 | 94.7 | 102 | 84.5 | 101 | 91.2 | 99.5 | 99.2 | 105 | 101 | 108 | 95.2 | 105 | 98.8 | 97 | 97.2 | 100 | 105 | 106 | 105 | 105 | 99.5 | > 10 | > 10 | > 10 | > 10 | > 10
5 | Nc1nc2c(ncn2[C@@H]2O[C@H](CO)[C@@H](O)[C@H]2O)c(=O)[nH]1 [guanosine] | 0 | 0 | 0 | 0 | 0 | 102 | 95.8 | 105 | 100 | 102 | 85.6 | 102 | 97.8 | 99.9 | 105 | 96 | 102 | 100 | 97 | 101 | 96.9 | 102 | 98.2 | 100 | 102 | 92.6 | 93.5 | 92.4 | 89.7 | 102 | > 10 | > 10 | > 10 | > 10 | > 10
6 | C=CC(=O)N1CCC[C@@H](n2nc(-c3ccc(Oc4ccccc4)cc3)c3c(N)ncnc32)C1 [ibrutinib] | 0 | 0 | 0 | 0 | 0 | 97 | 99.1 | 104 | 97.2 | 95.3 | 103 | 97.3 | 101 | 96.8 | 101 | 100 | 92 | 94.5 | 98.3 | 103 | 101 | 100 | 98.6 | 97.6 | 100 | 99.4 | 95.5 | 101 | 98.7 | 92.1 | > 10 | > 10 | > 10 | > 10 | > 10
7 | COc1cc(C(C)=O)ccc1OCCCN1CCC(c2noc3cc(F)ccc23)CC1 [iloperidone] | 0 | 0.8 | 0.4 | 0 | 0 | 91.9 | 91.3 | 94.4 | 94.2 | 88.6 | 90.7 | 98.5 | 84.8 | 94.9 | 82 | 93 | 96.7 | 104 | 104 | 80.5 | 97.9 | 97.5 | 96.6 | 99.6 | 91 | 101 | 96.7 | 94.7 | 98 | 95.6 | > 10 | > 10 | > 10 | > 10 | > 10
8 | NCCCCCc1c[nH]cn1 [impentamine] | 0 | 0 | 0 | 0 | 0 | 96.6 | 93.9 | 103 | 97.5 | 101 | 98 | 97.9 | 91.6 | 97 | 91.3 | 98.3 | 99.4 | 100 | 98.5 | 91.9 | 95.7 | 102 | 96.6 | 98.3 | 95.4 | 96.6 | 99.3 | 99.9 | 93.5 | 96.9 | > 10 | > 10 | > 10 | > 10 | > 10
9 | CCC(Cc1c(I)cc(I)c(N)c1I)C(=O)O (stereo not given) [iopanic-acid] | 0 | 0 | 0 | 0 | 0 | 106 | 112 | 100 | 110 | 99 | 110 | 107 | 98.8 | 85.8 | 113 | 101 | 91.4 | 96.4 | 102 | 108 | 99.7 | 95.6 | 97.9 | 96.7 | 97.1 | 109 | 103 | 104 | 102 | 93 | > 10 | > 10 | > 10 | > 10 | > 10
10 | CN(C)/C=N/c1c(I)cc(I)c(CCC(=O)O)c1I [iopodic-acid] | 0 | 0 | 0 | 0 | 0 | 98.8 | 93.7 | 116 | 95 | 98.4 | 99.8 | 102 | 94.3 | 96.2 | 105 | 101 | 95.4 | 89.5 | 99.4 | 93.2 | 98.2 | 100 | 98.9 | 102 | 97.2 | 108 | 101 | 108 | 99.1 | 102 | > 10 | > 10 | > 10 | > 10 | > 10
11 | C=CCN1CC[C@]23CCCC[C@H]2[C@H]1Cc1ccc(O)cc13 [levallorphan] | 0 | 0 | 0 | 0 | 0 | 102 | 105 | 94.2 | 98.9 | 88.8 | 94.6 | 105 | 108 | 95.6 | 104 | 108 | 97 | 99.8 | 101 | 104 | 98.6 | 93.8 | 97.3 | 102 | 103 | 101 | 103 | 99.3 | 105 | 101 | > 10 | > 10 | > 10 | > 10 | > 10
12 | Cc1ccc(F)cc1C(=O)Nc1ccc(C(=O)N2Cc3cccn3Cc3ccccc32)c(Cl)c1 [lixivaptan] | 0.2 | 0 | 0 | 0 | 0 | 114 | 108 | 99.5 | 103 | 84.2 | 96.6 | 88.4 | 91.4 | 88.3 | 95 | 102 | 98.6 | 96.2 | 105 | 108 | 101 | 96.5 | 101 | 96.3 | 97.7 | 106 | 103 | 102 | 102 | 95.8 | > 10 | > 10 | > 10 | > 10 | > 10
